Among the data in ChEMBL document CHEMBL5316338, “Discovery of Novel PTP1B Inhibitors with Once-Weekly Therapeutic Potential for Type 2 Diabetes: Design, Synthesis, and In Vitro and In Vivo Investigations of BimBH3 Peptide Analogues” (J Med Chem, 2023) are inhibition and IC50 values, retold here.

For test [1], the target named is T1, Tyrosine-protein phosphatase non-receptor type 1 (Homo sapiens) (UniProt P18031).
T1 sequence (whole entry): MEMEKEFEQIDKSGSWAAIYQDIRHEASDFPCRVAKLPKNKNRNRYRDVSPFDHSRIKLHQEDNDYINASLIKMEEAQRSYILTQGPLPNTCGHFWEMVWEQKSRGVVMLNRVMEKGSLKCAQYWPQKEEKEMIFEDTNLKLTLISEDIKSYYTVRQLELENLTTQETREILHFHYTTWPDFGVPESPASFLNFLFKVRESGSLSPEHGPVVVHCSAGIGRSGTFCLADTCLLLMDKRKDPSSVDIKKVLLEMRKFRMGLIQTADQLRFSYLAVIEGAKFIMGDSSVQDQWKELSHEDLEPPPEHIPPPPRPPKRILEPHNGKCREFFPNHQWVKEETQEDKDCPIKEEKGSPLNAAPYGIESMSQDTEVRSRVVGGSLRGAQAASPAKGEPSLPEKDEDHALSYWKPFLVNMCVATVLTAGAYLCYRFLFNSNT
The test is described as follows: Inhibition of N-terminal His tagged recombinant human PTP1B expressed in Escherichia coli using pNPP as substrate assessed as substrate hydrolysis at 40 umol/L relative to control. Particulars: dose 40.0 µmol/L.

Test [2] concerns the target T2, Tyrosine-protein phosphatase non-receptor type 1 (Homo sapiens, UniProt P18031).
T2 sequence (P18031 whole entry): T1 sequence (whole entry)
The test is described as follows: Inhibition of N-terminal His tagged recombinant human PTP1B expressed in Escherichia coli using pNPP as substrate assessed as substrate hydrolysis.

As usually defined, the inhibition is the drop in the measured response relative to a control, in per cent. The term pIC50 denotes the negative decadic logarithm of the IC50, by convention in mol/L.

Structures are written as SMILES. pIC50: −log10 of the molar value. Square brackets hold non-standard residues; d marks the D form. Peptide text beside a SMILES is read from it. * marks the point of attachment. ξ: configuration not given here. C19 diacid = O=C(O)CCCCCCCCCCCCCCCCCC(=O)*; C17 diacid = O=C(O)CCCCCCCCCCCCCCCC(=O)*; Docosanoyl = CCCCCCCCCCCCCCCCCCCCCC(=O)*; C16 diacid = O=C(O)CCCCCCCCCCCCCCC(=O)*; Nonadecanoyl = CCCCCCCCCCCCCCCCCCC(=O)*; Arachidoyl = CCCCCCCCCCCCCCCCCCCC(=O)*; C15 diacid = O=C(O)CCCCCCCCCCCCCC(=O)*; Heptadecanoyl = CCCCCCCCCCCCCCCCC(=O)*; Pentadecanoyl = CCCCCCCCCCCCCCC(=O)*; C12 diacid = O=C(O)CCCCCCCCCCC(=O)*; Tridecanoyl = CCCCCCCCCCCCC(=O)*; Lauroyl = CCCCCCCCCCCC(=O)*; Decanoyl = CCCCCCCCCC(=O)*; ξR = N=C(N)NCCCC(N)C(=O)O

With `CCCCCCCCCCCCCCCCCCC(=O)N[C@H](C(=O)N[C@@H](C)C(=O)N[C@@H](CCC(N)=O)C(=O)N[C@@H](CCC(=O)O)C(=O)N[C@@H](CC(C)C)C(=O)N[C@@H](CCCNC(=N)N)C(=O)NC(CCCNC(=N)N)C(=O)N[C@H](C(=O)NCC(=O)N[C@@H](CC(=O)O)C(=O)N[C@@H](CCC(=O)O)C(=O)N[C@@H](Cc1ccccc1)C(=O)O)[C@@H](C)CC)[C@@H](C)CC` (some centres not stated) (Nonadecanoyl-IAQELR[ξR]IGDEF-OH), the inhibition in test [1] was above 50%. Also, the pIC50 in test [2] was 6.36. On the same counts, the results for `CC[C@H](C)[C@H](NC(=O)CCCCCCCCCCCCCC(=O)O)C(=O)N[C@@H](C)C(=O)N[C@@H](CCC(N)=O)C(=O)N[C@@H](CCC(=O)O)C(=O)N[C@@H](CC(C)C)C(=O)N[C@@H](CCCNC(=N)N)C(=O)N[C@@H](CCCNC(=N)N)C(=O)N[C@H](C(=O)NCC(=O)N[C@@H](CC(=O)O)C(=O)N[C@@H](CCC(=O)O)C(=O)N[C@@H](Cc1ccccc1)C(=O)O)[C@@H](C)CC` ({C15 diacid}-IAQELRRIGDEF-OH) are above 50% and 5.81.

As for `CCCCCCCCCCCCCCCCC(=O)N[C@H](C(=O)N[C@@H](C)C(=O)N[C@@H](CCC(N)=O)C(=O)N[C@@H](CCC(=O)O)C(=O)N[C@@H](CC(C)C)C(=O)N[C@@H](CCCNC(=N)N)C(=O)N[C@@H](CCCNC(=N)N)C(=O)N[C@H](C(=O)NCC(=O)N[C@@H](CC(=O)O)C(=O)N[C@@H](CCC(=O)O)C(=O)N[C@@H](Cc1ccccc1)C(=O)O)[C@@H](C)CC)[C@@H](C)CC` (Heptadecanoyl-IAQELRRIGDEF-OH), the inhibition in test [1] is above 50%. In test [2], the pIC50 is 5.59.

As for `CCCCCCCCCCCC(=O)N[C@H](C(=O)N[C@@H](C)C(=O)N[C@@H](CCC(N)=O)C(=O)N[C@@H](CCC(=O)O)C(=O)N[C@@H](CC(C)C)C(=O)N[C@@H](CCCNC(=N)N)C(=O)N[C@@H](CCCNC(=N)N)C(=O)N[C@H](C(=O)NCC(=O)N[C@@H](CC(=O)O)C(=O)N[C@@H](CCC(=O)O)C(=O)N[C@@H](Cc1ccccc1)C(=O)O)[C@@H](C)CC)[C@@H](C)CC` (Lauroyl-IAQELRRIGDEF-OH), the inhibition in test [1] was above 50%. In addition, in test [2], the pIC50 was 5.56. Turning to `CC[C@H](C)[C@H](NC(=O)CCCCCCCCCCCCCCCC(=O)O)C(=O)N[C@@H](C)C(=O)N[C@@H](CCC(N)=O)C(=O)N[C@@H](CCC(=O)O)C(=O)N[C@@H](CC(C)C)C(=O)N[C@@H](CCCNC(=N)N)C(=O)NC(CCCNC(=N)N)C(=O)N[C@H](C(=O)NCC(=O)N[C@@H](CC(=O)O)C(=O)N[C@@H](CCC(=O)O)C(=O)N[C@@H](Cc1ccccc1)C(=O)O)[C@@H](C)CC` (some centres not stated) ({C17 diacid}-IAQELR[ξR]IGDEF-OH), the inhibition in test [1] was above 50%. Besides, the pIC50 in test [2] was 5.87. The corresponding values for `CCCCCCCCCC(=O)N[C@H](C(=O)N[C@@H](C)C(=O)N[C@@H](CCC(N)=O)C(=O)N[C@@H](CCC(=O)O)C(=O)N[C@@H](CC(C)C)C(=O)N[C@@H](CCCNC(=N)N)C(=O)N[C@@H](CCCNC(=N)N)C(=O)N[C@H](C(=O)NCC(=O)N[C@@H](CC(=O)O)C(=O)N[C@@H](CCC(=O)O)C(=O)N[C@@H](Cc1ccccc1)C(=O)O)[C@@H](C)CC)[C@@H](C)CC` (Decanoyl-IAQELRRIGDEF-OH) are above 50% and 5.67.

Regarding `CCCCCCCCCCCCC(=O)N[C@H](C(=O)N[C@@H](C)C(=O)N[C@@H](CCC(N)=O)C(=O)N[C@@H](CCC(=O)O)C(=O)N[C@@H](CC(C)C)C(=O)N[C@@H](CCCNC(=N)N)C(=O)N[C@@H](CCCNC(=N)N)C(=O)N[C@H](C(=O)NCC(=O)N[C@@H](CC(=O)O)C(=O)N[C@@H](CCC(=O)O)C(=O)N[C@@H](Cc1ccccc1)C(=O)O)[C@@H](C)CC)[C@@H](C)CC` (Tridecanoyl-IAQELRRIGDEF-OH), the inhibition in test [1] is above 50%. Moreover, in test [2], the pIC50 was 6.08. The corresponding values for `CC[C@H](C)[C@H](NC(=O)CCCCCCCCCCCCCCCCCC(=O)O)C(=O)N[C@@H](C)C(=O)N[C@@H](CCC(N)=O)C(=O)N[C@@H](CCC(=O)O)C(=O)N[C@@H](CC(C)C)C(=O)N[C@@H](CCCNC(=N)N)C(=O)NC(CCCNC(=N)N)C(=O)N[C@H](C(=O)NCC(=O)N[C@@H](CC(=O)O)C(=O)N[C@@H](CCC(=O)O)C(=O)N[C@@H](Cc1ccccc1)C(=O)O)[C@@H](C)CC` (some centres not stated) ({C19 diacid}-IAQELR[ξR]IGDEF-OH) are above 50% and 5.90. Turning to `CCCCCCCCCCCCCCCC(=O)N[C@@H](CCC(=O)N[C@H](C(=O)N[C@@H](C)C(=O)N[C@H](CCC(N)=O)C(=O)N[C@@H](CCC(=O)O)C(=O)N[C@@H](CC(C)C)C(=O)N[C@@H](CCCNC(=N)N)C(=O)N[C@@H](CCCNC(=N)N)C(=O)N[C@H](C(=O)NCC(=O)N[C@@H](CC(=O)O)C(=O)N[C@@H](CCC(=O)O)C(=O)N[C@@H](Cc1ccccc1)C(=O)O)[C@@H](C)CC)[C@@H](C)CC)C(=O)O`, the inhibition in test [1] was above 50%. The pIC50 in test [2] was 5.36. As for `CCCCCCCCCCCCCCCCCCCCCC(=O)N[C@H](C(=O)N[C@@H](C)C(=O)N[C@@H](CCC(N)=O)C(=O)N[C@@H](CCC(=O)O)C(=O)N[C@@H](CC(C)C)C(=O)N[C@@H](CCCNC(=N)N)C(=O)NC(CCCNC(=N)N)C(=O)N[C@H](C(=O)NCC(=O)N[C@@H](CC(=O)O)C(=O)N[C@@H](CCC(=O)O)C(=O)N[C@@H](Cc1ccccc1)C(=O)O)[C@@H](C)CC)[C@@H](C)CC` (some centres not stated) (Docosanoyl-IAQELR[ξR]IGDEF-OH), in test [1], the inhibition is above 50%. Further, the pIC50 in test [2] was 5.17. The corresponding values for `CCCCCCCCCCCCCCCCCCCC(=O)N[C@H](C(=O)N[C@@H](C)C(=O)N[C@@H](CCC(N)=O)C(=O)N[C@@H](CCC(=O)O)C(=O)N[C@@H](CC(C)C)C(=O)N[C@@H](CCCNC(=N)N)C(=O)NC(CCCNC(=N)N)C(=O)N[C@H](C(=O)NCC(=O)N[C@@H](CC(=O)O)C(=O)N[C@@H](CCC(=O)O)C(=O)N[C@@H](Cc1ccccc1)C(=O)O)[C@@H](C)CC)[C@@H](C)CC` (some centres not stated) (Arachidoyl-IAQELR[ξR]IGDEF-OH) are above 50% and 5.41. The corresponding values for `CCCCCCCCCCCCCCC(=O)N[C@H](C(=O)N[C@@H](C)C(=O)N[C@@H](CCC(N)=O)C(=O)N[C@@H](CCC(=O)O)C(=O)N[C@@H](CC(C)C)C(=O)N[C@@H](CCCNC(=N)N)C(=O)N[C@@H](CCCNC(=N)N)C(=O)N[C@H](C(=O)NCC(=O)N[C@@H](CC(=O)O)C(=O)N[C@@H](CCC(=O)O)C(=O)N[C@@H](Cc1ccccc1)C(=O)O)[C@@H](C)CC)[C@@H](C)CC` (Pentadecanoyl-IAQELRRIGDEF-OH) are above 50% and 5.78. On the same counts, the results for `CC[C@H](C)[C@H](NC(=O)CCCCCCCCCCCCCCC(=O)O)C(=O)N[C@@H](C)C(=O)N[C@@H](CCC(N)=O)C(=O)N[C@@H](CCC(=O)O)C(=O)N[C@@H](CC(C)C)C(=O)N[C@@H](CCCNC(=N)N)C(=O)N[C@@H](CCCNC(=N)N)C(=O)N[C@H](C(=O)NCC(=O)N[C@@H](CC(=O)O)C(=O)N[C@@H](CCC(=O)O)C(=O)N[C@@H](Cc1ccccc1)C(=O)O)[C@@H](C)CC` ({C16 diacid}-IAQELRRIGDEF-OH) are above 50% and 5.54.

Regarding `CC[C@H](C)[C@H](NC(=O)CCCCCCCCCCC(=O)O)C(=O)N[C@@H](C)C(=O)N[C@@H](CCC(N)=O)C(=O)N[C@@H](CCC(=O)O)C(=O)N[C@@H](CC(C)C)C(=O)N[C@@H](CCCNC(=N)N)C(=O)N[C@@H](CCCNC(=N)N)C(=O)N[C@H](C(=O)NCC(=O)N[C@@H](CC(=O)O)C(=O)N[C@@H](CCC(=O)O)C(=O)N[C@@H](Cc1ccccc1)C(=O)O)[C@@H](C)CC` ({C12 diacid}-IAQELRRIGDEF-OH), the inhibition in test [1] is below 50%.
